In one experiment the target is T1, EF-G1 S459F (Pseudomonas aeruginosa, UniProt Q9HWD2, S459F).
T1 construct: P. aeroginosa fusA1 encoding full-length EF-G was PCR amplified from pET28a-PaEFG-Nhis; made in house; host or cells: E. coli BL21 (DE3)
The experiment can be described thus: Surface plasmon resonance (SPR), EF-G1 S459F. The class given is binding, P. aeruginosa. The following applies: Biacore, data not shown. From the text: For wild type P. aeruginosa EF-G1 expression, the fusA gene was amplified from genomic DNA of P. aeruginosa PAO1 K767 using the primer pair EFG-F/EFG-R: […]/[…]. The product was digested with NdeI and HindIII and ligated into similarly digested pET28a to generate pET28a-PaEFG-Nhis. This plasmid was then used for site directed mutagenesis to introduce the nucleotide change encoding EF-G1S459F (pET28a-PaEFGS459F-Nhis). The plasmids were then transformed into an E. coli strain BL21 (DE3) for expression. A single colony was used to inoculate 10 ml LB broth containing 50 µg/ml kanamycin which was incubated at 37°C overnight, with shaking at 250 rpm. The overnight culture was then diluted 100-fold into 1 liter fresh LB broth containing 50 µg/ml kanamycin. After growing at 37°C with vigorous shaking for about 2.5 hours, expression of P. aeruginosa EF-G1 or EF-G1S459F was then induced by adding 0.1 mM IPTG, with further culture incubation at 18°C for 24 hours. Cells were then pelleted by centrifugation at 5,000 rpm with Sorvall SLC-6000 rotor and stored at −20°C. Cell pellets were then resuspended in 20 ml of BugBuster solution (Novagen) and incubated at room temperature for 20 minutes. […] The protein in the fractions was monitored by UV absorbance at 280 nm. […] Protein concentration was determined by Nano-drop spectrophotometer. […]
Background: SPR reads the build-up and loss of mass on a sensor chip optically.

Another experiment addresses T2, P. aeruginosa EF-G1 (Pseudomonas aeruginosa, UniProt Q9HWD2).
T2 construct: P. aeroginosa fusA1 encoding full-length EF-G was PCR amplified from pET28a-PaEFG-Nhis; made in house; host or cells: E. coli BL21 (DE3)
The experiment can be described thus: Co-crystal structure of EF-G1 with argyrin B. The class given is binding. The following applies: PDB 4FN5, 2.9 Å. As to the method:
BL21 (DE3) cells harboring pET28a-PaEFG-Nhis were grown in Terrific Broth containing 100 µg/ml kanamycin. EF-G1 expression was induced using 1 mM IPTG. Cell pellets were resuspended and lysed using a microfluidizer, after which ultracentrifugation was performed. Purification was done using NiNTA resin followed by removal of the N-terminal Histidine tag with thrombin protease. The protein was further purified using a Mono Q column and was then concentrated and loaded onto a HiLoad Superdex 200 26/60 column, exchanging the protein into 25 mM Tris-HCl pH 7.5, 150 mM NaCl and 1 mM TCEP. […] Sitting drop vapor diffusion method was used for crystallization, with the crystallization well containing 100 mM Tris-HCl pH 7.5, 18% PEG 3350 and 200 mM sodium nitrate, and the drop containing a 1∶1 volume of protein and crystallization solution. After crystals formed they were subsequently cryoprotected using the crystallization solution with the addition of 20% glycerol, followed by flash freezing directly into liquid nitrogen.
The data were measured from a single crystal maintained at 100°K, and the reflections were indexed, integrated, and scaled using autoPROC [27], [28]. The spacegroup of the complex is C2 with 1 molecule in the asymmetric unit. The structure was determined with PHASER [29] using molecular replacement methods with a starting model of Thermus thermophilus EF-G (PDB Code 2BM0). […]

The test system of another experiment is P. aeruginosa. The experiment can be described thus: Broth microdilution susceptibility to argyrin B, P. aeruginosa strains. The class given is cell-based. The following applies: for Susceptibility to argyrin B: broth microdilution.

*1 amine or outer side, *2 acyl side, *3 side chain or, on linkers, in order; H or OH if unused. Where a SMILES comes first, the peptide text is derived from it. [ ]: non-standard residue; d: D form. dAla(ψthiazole) = C[C@@H](N[*:1])c1nc(C(=O)[*:2])cs1; Trp(4-OMe) = COc1cccc2[nH]cc(C[C@H](N)C(=O)O)c12; dAbu = CC[C@@H](N)C(=O)O; Dha = C=C(N)C(=O)O; Sar = CNCC(=O)O

Results on one molecule are retold here after paper PMC3438169 (PLoS ONE, 2012).

For `C=C1NC(=O)CN(C)C(=O)CNC(=O)[C@H](Cc2c[nH]c3cccc(OC)c23)NC(=O)[C@H](Cc2c[nH]c3ccccc23)NC(=O)c2csc(n2)[C@@H](C)NC(=O)[C@@H](CC)NC1=O` [argyrin B] (cyclo([dAbu][dAla(ψthiazole)]W[Trp(4-OMe)]G[Sar][Dha])), on EF-G1 S459F, the “Binding by SPR (in words)” value was “failed to bind argyrin B sufficiently to generate a Kd value”. Further, the “Binding site in co-crystal structure” value at P. aeruginosa EF-G1 was “bound at the interface of domains III and V”. In addition, the “Susceptibility to argyrin B” value in the experiment with P. aeruginosa (P. aeruginosa ATCC 12055 (parent of ATCC 35151)) is 8 µg/mL; in the experiment on P. aeruginosa (P. aeruginosa ATCC 35151 (Z61), hypersensitive) it was 0.125 to 0.25 µg/mL; with P. aeruginosa (P. aeruginosa CDA0055 (Z61, FusA1 S417L)) it was 64 µg/mL; in the experiment on P. aeruginosa (P. aeruginosa CDA0056 (Z61, FusA1 S459F)), 8 µg/mL; in the experiment with P. aeruginosa (P. aeruginosa CDA0061 (Z61, FusA L663Q)), over 128 µg/mL; with P. aeruginosa (P. aeruginosa CDR0052 (K767, FusA1 T671A)) it was over 128 µg/mL. Also, the “Susceptibility to argyrin B” value in the experiment with P. aeruginosa (P. aeruginosa CDR0054 (K767, FusA1 S459F)) is over 128 µg/mL; in the experiment with P. aeruginosa (P. aeruginosa CDR0055 (K767, FusA1 S417L)) it was over 128 µg/mL; in the experiment on P. aeruginosa (P. aeruginosa CDR0056 (K767, FusA1 Y683C)), over 128 µg/mL; in the experiment on P. aeruginosa (P. aeruginosa CDR0057 (K767, FusA1 P486S)), over 128 µg/mL; with P. aeruginosa (P. aeruginosa CDR0058 (K767, FusA1 P414S)), over 128 µg/mL; in the experiment with P. aeruginosa (P. aeruginosa K767 (PAO1, prototroph)) it was 8 µg/mL. For the same molecule, the “Sensitivity of mutants to argyrin B (in words)” value in the experiment on P. aeruginosa (P. aeruginosa Z61 mutants with S417L and S459F substitutions) was “still partially sensitive”.
